Experimental data published in PubChem BioAssay (NCI).
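Cells were grown in 96-well plates and exposed to each compound for 48 hours at five concentrations; endpoints were interpolated linearly between bracketing concentrations, or set to the highest concentration if not reached. At the TGI there is no net growth.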

Legend:
Test in all cases: DTP human tumour cell line panel, 48 h
UO-31 renal = system: UO-31 renal
A549 NSCLC = system: A549 NSCLC
MDA-MB-231 breast = system: MDA-MB-231 breast
HL-60(TB) leukemia = system: HL-60(TB) leukemia
DLD-1 colon = system: DLD-1 colon
XF 498 CNS = system: XF 498 CNS
DMS 114 small cell lung = system: DMS 114 small cell lung
KM20L2 colon = system: KM20L2 colon
LXFL 529 NSCLC = system: LXFL 529 NSCLC
M19-MEL melanoma = system: M19-MEL melanoma
SNB-78 CNS = system: SNB-78 CNS

Compound	TGI (UO-31 renal)	TGI (A549 NSCLC)	TGI (MDA-MB-231 breast)	TGI (HL-60(TB) leukemia)	also measured
Clc1cccc(Cl)c1C1SCc2nc3cc4ccccc4cc3n21 (stereo unspecified)	> 100 µM	> 100 µM	> 100 µM	–	–
COc1ccc(-c2cc(=O)c3c(O)c(OC)c(O)cc3o2)cc1O	> 100 µM	> 100 µM	> 100 µM	14.2 µM	–
O=c1oc2ccccc2c(O)c1C(c1ccc2ccccc2c1)c1c(O)c2ccccc2oc1=O	35.4 µM	> 100 µM	47.1 µM	75.5 µM	–
O=c1c2cc([N+](=O)[O-])cnc2sn1-c1ccc(Oc2ccccc2)cc1	> 100 µM	> 100 µM	90.7 µM	> 100 µM	–
CC/C(=C/OC)P1(=O)OC(C)(C)CN1C(C)(C)C (stereo unspecified)	> 100 µM	> 100 µM	> 100 µM	–	–
CC(C)CC(=O)OC[n+]1cccc(-c2c(COC(=O)NC(C)C)c(COC(=O)NC(C)C)c3n2CCC3)c1	91.6 µM	> 100 µM	> 100 µM	–	–
CC(C)CC(NC(=O)OCc1ccccc1)C(=O)NCCCCC(N)C(=O)NC(CCCCNC(=O)C(CC(C)C)NC(=O)OCc1ccccc1)C(=O)NC(CCCCNC(=O)C(CC(C)C)NC(=O)OCc1ccccc1)C(=O)NC(CCCCNC(=O)C(CC(C)C)NC(=O)OCc1ccccc1)C(=O)NC(CCCCNC(=O)C(CC(C)C)NC(=O)OCc1ccccc1)C(=O)NC(CCCCNC(=O)C(CC(C)C)NC(=O)OCc1ccccc1)C(=O)O (stereo unspecified)	> 100 µM	> 100 µM	> 100 µM	> 100 µM	–
C=C1[C@H](OCC(C)C)[C@@H](OCC(C)C)[C@@H](O)C(C)(C)/C=C/[C@H](C)C(=O)[C@@]2(O)C[C@H](C)[C@H](O)[C@@H]2[C@H]1OCC(C)C	> 7.5 µM	–	> 7.5 µM	–	–
CCC1=NC(N/N=C/c2ccccc2O)=N/C1=C\c1ccccc1O	20.4 µM	> 100 µM	> 100 µM	10.6 µM	–
CC(C(O)c1ccccc1)N(C)/N=N/c1nc2c([nH]1)c(=O)n(C)c(=O)n2C (stereo unspecified)	> 100 µM	> 100 µM	> 100 µM	> 100 µM	–
CCOC(=O)c1c(-c2ccc(Cl)cc2)c(C#N)c(=S)n(C2OC(CO)C(O)C(O)C2O)c1-c1ccccc1 (stereo unspecified)	> 100 µM	> 100 µM	75.9 µM	–	–
CC1C(c2ccccc2)=CCON1c1ccccc1 (stereo unspecified)	> 100 µM	> 100 µM	–	> 100 µM	TGI (DLD-1 colon): > 100 µM; TGI (XF 498 CNS): > 100 µM; TGI (DMS 114 small cell lung): > 100 µM; TGI (KM20L2 colon): > 100 µM; TGI (LXFL 529 NSCLC): > 100 µM; TGI (M19-MEL melanoma): > 100 µM; TGI (SNB-78 CNS): > 100 µM
CCCN(CCC)C(=S)N/N=C/c1cccc(C)n1	12.2 µM	10.3 µM	2.03 µM	0.384 µM	–
CCOP(=O)(CCC(O)CNc1nc(N)nc(Cl)c1N=Nc1ccc(Cl)cc1)OCC (stereo unspecified)	16.6 µM	33.8 µM	> 100 µM	33.3 µM	–
COC(=O)C1=C(C(=O)OC)C(C(=O)c2ccccc2)N2N=C(c3ccc(Cl)cc3)C=CC12 (stereo unspecified)	> 100 µM	> 100 µM	> 100 µM	> 100 µM	–
COC(=O)CC1CN(C(=O)OCc2ccccc2)C(C)(C)O1 (stereo unspecified)	> 100 µM	> 100 µM	> 100 µM	> 100 µM	–
O=S(=O)([N-]c1nc2ccccc2nc1-[n+]1ccccc1)c1ccccc1	> 100 µM	> 100 µM	84.8 µM	72.6 µM	–
CN=C1Nc2ccccc2C(=S)N2CSC[C@@H]12	> 100 µM	> 100 µM	> 100 µM	–	–

Compound	TGI (UO-31 renal)	TGI (A549 NSCLC)	TGI (MDA-MB-231 breast)	TGI (HL-60(TB) leukemia)	also measured
CCOC(=O)Cc1nc2nn(Cc3ccccc3)cc2c(=O)[nH]1	> 100 µM	> 100 µM	> 100 µM	> 100 µM	–
C=C(CO)[C@H]1CC/C(C)=C/CC/C(C)=C/C/C=C(\C)[C@H](O)C1	93 µM	> 100 µM	56.6 µM	–	–
COc1ccc(OC)c2c(=O)cc(-c3ccccc3)[nH]c12	> 100 µM	> 100 µM	> 100 µM	> 100 µM	–
CC(=O)CCC(=O)CC(O)(C(F)(F)F)C(F)(F)F	27.8 µM	41.9 µM	35 µM	38.1 µM	–
COc1c(C(=O)O)cccc1-c1cccc(C(=O)NCCN(CCNC(=O)c2cccc(-c3cccc(C(=O)O)c3OC)c2OC)CCNC(=O)c2cccc(-c3cccc(C(=O)O)c3OC)c2OC)c1OC	> 100 µM	> 100 µM	> 100 µM	65.4 µM	–
CSC1=N/C(=C\c2ccc(Cl)cc2)C(=O)N1CN1CCOCC1	> 100 µM	> 100 µM	> 100 µM	–	–
Cc1nc2c(n1CCCl)C(=O)c1ccccc1C2=O	–	> 100 µM	56.5 µM	83.8 µM	–
CNC(=O)C(C)NC(=O)C(Cc1ccccc1)NC(=O)OC(C)(C)C (stereo unspecified)	> 100 µM	> 100 µM	> 100 µM	> 100 µM	–
COC(=O)C(Cc1ccccc1)C(=O)NC(CNC(=O)OCc1ccccc1)C(=O)OCc1ccccc1 (stereo unspecified)	> 94.4 µM	–	50.3 µM	> 67.9 µM	–
CC1=CC[C@@]2(C)[C@@H]([C@@H]1C)[C@H]1CC[C@@H]3[C@@]4(C)CC[C@H](O)C(C)(C)[C@@H]4CC[C@@]3(C)[C@]1(C)C[C@@H]2O	> 100 µM	> 100 µM	20.2 µM	> 100 µM	–
Cc1cc2c(cc1Cl)SC(NNC(=O)c1ccncc1)=NS2(=O)=O	–	> 10 µM	> 10 µM	> 10 µM	–
Cc1nn(-c2ccccc2)c2nc3c(c(C)nn3-c3ccccc3)c(-c3ccccc3Br)c12	> 100 µM	> 100 µM	> 100 µM	–	–
Cc1ccc(S(=O)(=O)Oc2coc(CO)cc2=O)cc1	27.3 µM	28.1 µM	41.7 µM	12.5 µM	–
Cn1c(=S)[nH]c2c(Cl)cc(Cl)cc2c1=O	> 100 µM	> 100 µM	> 100 µM	78.8 µM	–
O=C(/C=C/c1c(O)c2ccccc2[nH]c1=O)CC(=O)C(=O)Nc1cccc(O)c1	> 100 µM	> 100 µM	> 100 µM	> 100 µM	–
COc1c(C(CC(C)C)OC(C)=O)ccc2c1C(=O)OCc1cc(C)cc(O)c1O2 (stereo unspecified)	19.7 µM	25.8 µM	–	> 100 µM	–
Cc1ccc(-c2cnc(NC3OC(COC(=O)c4ccccc4)C(OC(=O)c4ccccc4)C(OC(=O)c4ccccc4)C3OC(=O)c3ccccc3)s2)cc1 (stereo unspecified)	> 100 µM	> 100 µM	> 100 µM	–	–
